In patent US20240132524A1, “SMALL MOLECULES FOR BORON NEUTRON CAPTURE THERAPY” (Aviko Radiopharmaceuticals, LLC, priority 2022, published 2024):
Several values for one entry are separate records, joined by “and”; a condition that tells them apart may be missing. Identical values can stand only once.

Tests used:
SAS (head & neck cancer) = test: Cell uptake assay in SAS cells; assay type: cell-based, human; conditions: 0.1 mM
Experimental: (§1) • 1.1.1 15 mL of cell culture medium was placed into a T225 flask. • 1.1.2 The flask was placed in a humidified 37° C., 5% CO2 incubator for 15 minutes to allow medium to equilibrate to the proper pH and temperature. • 1.1.3 The vial was removed from liquid nitrogen and thawed rapidly by placing at 37° C. in a water bath with gentle agitation for 1-2 minutes and then decontaminated by wiping with 70% ethanol before opening in a Class II biological safety cabinet. • 1.1.4 The vial contents were transferred dropwise into 10 mL of cell culture medium in a sterile 15 mL conical tube. • 1.1.5 The cells were centrifuged at 1,300 rpm for 5 minutes. • 1.1.6 The supernatant was aspirated and re-suspended the cells and transferred the cells into T225 flask containing cell culture medium.
(§2) • 1.2.1 Culture medium were renewed every 2-3 days. • 1.2.2 Keep the flask in a humidified 37° C., 5% CO2 incubator
(§3) Cells were harvested and diluted in culture medium to the designated concentration. Then the cells were cultured in T25 flasks, one T25 flask for one sample. 2.2 Formulation of test compounds • 2.2.1 L-Boronophenylalanine (L-BPA, 4-boron-L-phenylalanine, Purity: 95%, Chemical formula: C9H12BNO4, MW: 209.01, CAS: 76410-58-7) and fructose were dissolved in PBS at a molar ratio of 1:5, and then a 1.27 M ratio of 1 N NaOH is added. The mixture was stirred until L-BPA is completely dissolved, and the pH value was titrated to 7.2-7.4 with 1N HCl. • 2.2.2 For test compounds other than BPA, stock solutions were prepared of each compound in DMSO or fructose formulation at a concentration of 20 mM (such that final % DMSO in the cellular assay medium=0.5%)
(§4) • 2.3.1 The cells were seeded overnight (12-18 hours) to allow the cells to adhere well. • 2.3.2 The stock solution of each compound was added to each T25 flask such that the final concentration for each compound is 100 uM (0.1 mM). • 2.3.3 The flasks were placed in a 37° C., […] for 1 hour, 4 hour, and 24 hours, the cells were collected by using 0.25% Trypsin with 0.53 mM EDTA. 2.3.5 Centrifuged at 1,300 rpm for 5 min to collect cell pellets.

U87-MG (glioblastoma) = test: Cell uptake assay in U87-MG cells; assay type: cell-based, human; conditions: 0.1 mM
Experimental: as §1, §2
as §3, with “medium=0.5%) […]” for “medium=0.5%)”

B16F10 (melanoma) = test: Cell uptake assay in B16F10 cells; assay type: cell-based, mouse; conditions: 0.1 mM
Experimental: as §1, §2, §3, §4

[1] = test system: NIH-3T3 (normal cell line); test: Cell uptake assay in NIH-3T3 cells; assay type: cell-based, mouse; conditions: 0.1 mM
Experimental: as §1, §2, §3, §4

[2] = test system: SAS, B16F10, U87-MG relative to NIH-3T3; test: Cell uptake assays, cancer cell lines compared with normal cell line; assay type: cell-based, human
Experimental: as §1, §2
Cells were harvested and diluted in culture medium to the designated concentration. Then the cells were cultured in T25 flasks, one T25 flask for one sample. 2.2 Formulation of test compounds • 2.2.1 L-Boronophenylalanine (L-BPA, 4-boron-L-phenylalanine, Purity: 95%, Chemical formula: C9H12BNO4, MW: 209.01, CAS: 76410-58-7) and fructose were dissolved in PBS at a molar ratio of 1:5, and then a 1.27 M ratio of 1 N NaOH is added. […]

SMILES	Cell uptake, Mean (ng/10^6 cell), SAS (SAS (head & neck cancer); 1 h)	Cell uptake, Mean (ng/10^6 cell), SAS (SAS (head & neck cancer); 4 h)	Cell uptake, Mean (ng/10^6 cell), SAS (SAS (head & neck cancer); 24 h)	Cell uptake, Mean (ng/10^6 cell), U87-MG (U87-MG (glioblastoma); 1 h)	Cell uptake, Mean (ng/10^6 cell), U87-MG (U87-MG (glioblastoma); 4 h) [ng/10^6 cell]	Cell uptake, Mean (ng/10^6 cell), U87-MG (U87-MG (glioblastoma); 24 h) [ng/10^6 cell]	Cell uptake, Mean (ng/10^6 cell), B16F10 (B16F10 (melanoma); 1 h) [ng/10^6 cell]	Cell uptake, Mean (ng/10^6 cell), B16F10 (B16F10 (melanoma); 4 h)	Cell uptake, Mean (ng/10^6 cell), B16F10 (B16F10 (melanoma); 24 h) [ng/10^6 cell]	Cell uptake, Mean (ng/10^6 cell), NIH-3T3 ([1]; 1 h) [ng/10^6 cell]	Cell uptake, Mean (ng/10^6 cell), NIH-3T3 ([1]; 4 h) [ng/10^6 cell]	Cell uptake, Mean (ng/10^6 cell), NIH-3T3 ([1]; 24 h) [ng/10^6 cell]	Selective uptake by cancer cell lines relative to normal cell line ([2]; SAS, B16F10, U87-MG relative to NIH-3T3)	Uptake in cancer cells relative to Comparator Compounds A and B ([2]; cancer cells)	Cell uptake, Mean (ng/10^6 cell), SAS (SAS (head & neck cancer); 2 h) [ng/10^6 cell]	Cell uptake, Mean (ng/10^6 cell), U87-MG (U87-MG (glioblastoma); 2 h) [ng/10^6 cell]	Cell uptake, Mean (ng/10^6 cell), B16F10 (B16F10 (melanoma); 2 h) [ng/10^6 cell]	Cell uptake, Mean (ng/10^6 cell), NIH-3T3 ([1]; 2 h) [ng/10^6 cell]
N[C@@H](Cc1cccc(B(O)O)c1O)C(=O)O [Comparator Compound B, reference compound]	510 ng/10^6 cell	487 ng/10^6 cell	1465 ng/10^6 cell	380 ng/10^6 cell	519	250	131	248 ng/10^6 cell	662	186	122	217	–	–	–	–	–	–
N[C@@H](Cc1cccc(B(O)O)c1O)C(=O)O [Compound 1, (S)-2-amino-3-(3-borono-2-hydroxyphenyl)propanoic acid]	863 ng/10^6 cell	1400 ng/10^6 cell	2625 ng/10^6 cell	175 ng/10^6 cell	713	1315	158	282 ng/10^6 cell	669	109	194	122	selective partitioning into cancer cells relative to normal cells	increased uptake in cancer cells relative to Comparator Compounds A and B	–	–	–	–
N[C@@H](Cc1c(F)ccc(B(O)O)c1O)C(=O)O [Compound 3, (2S)-2-amino-3-[3-(dihydroxyboranyl)-6-fluoro-2-hydroxyphenyl]propanoic acid]	1320 ng/10^6 cell	1295 ng/10^6 cell	1580 ng/10^6 cell	307 ng/10^6 cell	621	555	66.5	255 ng/10^6 cell	196	105	196	182	–	–	–	–	–	–
N[C@@H](Cc1ccc(F)c(B(O)O)c1O)C(=O)O [Compound 4, (2S)-2-amino-3-[3-(dihydroxyboranyl)-4-fluoro-2-hydroxyphenyl]propanoic acid]	33.1 ng/10^6 cell	191 ng/10^6 cell	886 ng/10^6 cell	14.3 ng/10^6 cell	40	117	29.5	39.1 ng/10^6 cell	48.1	28.3	36.9	55.3	–	–	–	–	–	–
N[C@@H](Cc1cc(Cl)cc(B(O)O)c1O)C(=O)O [Compound 6, (2S)-2-amino-3-[5-chloro-3-(dihydroxyboranyl)-2-hydroxyphenyl]propanoic acid]	373 ng/10^6 cell	796 ng/10^6 cell	1735 ng/10^6 cell	58.6 ng/10^6 cell	171	244	39.6	75.9 ng/10^6 cell	222	20.3	59.8	50.8	–	–	–	–	–	–
N[C@@H](Cc1cc(F)cc(B(O)O)c1O)C(=O)O [Compound 8, (2S)-2-amino-3-13-(dihydroxyboranyl)-5-fluoro-2-hydroxyphenyllpropanoic acid]	561 ng/10^6 cell	693 ng/10^6 cell	1605 ng/10^6 cell	173 ng/10^6 cell	505	545	115	185 ng/10^6 cell	615	51.7	119	101	–	–	–	–	–	–
N[C@@H](Cc1ccc(B(O)O)cc1)C(=O)O [L-BPA, 4-Borono-L-phenylalanine]	425 ng/10^6 cell and 407 ng/10^6 cell and 260 ng/10^6 cell and 254 ng/10^6 cell and 218 ng/10^6 cell	379 ng/10^6 cell and 352 ng/10^6 cell and 251 ng/10^6 cell and 219 ng/10^6 cell and 217 ng/10^6 cell	423 ng/10^6 cell and 444 ng/10^6 cell and 501 ng/10^6 cell and 261 ng/10^6 cell and 345 ng/10^6 cell and 336 ng/10^6 cell	391 ng/10^6 cell and 343 ng/10^6 cell and 233 ng/10^6 cell and 196 ng/10^6 cell and 297 ng/10^6 cell	–	–	–	247 ng/10^6 cell and 224 ng/10^6 cell and 188 ng/10^6 cell and 191 ng/10^6 cell and 185 ng/10^6 cell	–	–	–	–	–	–	394	223	986	177
